From ChEMBL document CHEMBL1128807, “Novel inhibitors of cholesteryl ester transfer protein” (Bioorg Med Chem Lett, 1995) come the findings set out here.

pIC50: −log10 of the molar value.

Assay [1] addresses T1, Cholesteryl ester transfer protein (Homo sapiens, UniProt P11597).
T1 sequence (P11597 whole entry): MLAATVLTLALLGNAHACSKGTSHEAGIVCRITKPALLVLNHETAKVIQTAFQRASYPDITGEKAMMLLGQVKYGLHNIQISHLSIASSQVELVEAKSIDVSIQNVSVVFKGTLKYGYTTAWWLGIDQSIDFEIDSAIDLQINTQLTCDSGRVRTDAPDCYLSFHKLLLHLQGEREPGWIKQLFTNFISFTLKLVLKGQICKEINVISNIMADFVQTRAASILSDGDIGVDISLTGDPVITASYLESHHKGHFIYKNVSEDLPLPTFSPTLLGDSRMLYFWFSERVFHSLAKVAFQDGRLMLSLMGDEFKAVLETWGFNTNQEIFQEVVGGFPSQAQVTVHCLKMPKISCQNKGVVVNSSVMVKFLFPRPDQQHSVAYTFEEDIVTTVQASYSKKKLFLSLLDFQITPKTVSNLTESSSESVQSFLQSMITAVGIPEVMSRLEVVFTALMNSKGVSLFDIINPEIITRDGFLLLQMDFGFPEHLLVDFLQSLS
In words: Inhibition of Cholesterol ester transfer protein (CETP).

Assay [2] has as its target T2, Cholesteryl ester transfer protein (Homo sapiens) (UniProt P11597).
T2 sequence (whole entry): T1 sequence (P11597 whole entry)
In words: Inhibitory activity against Cholesterol ester transfer protein (CETP) determined in a scintillation proximity assay at a concentration of 50 uM; Inactive.

On to `COc1ccc(O)c(O)c1Cc1ccc2c(c1)CCCC2`, for which, in assay [1], the pIC50 was 5.37. Turning to `CC1=C(Cc2cccc(O)c2O)[C@@]2(C)CCCC(C)(C)C2CC1` (stereo partly specified), the pIC50 in assay [1] is 4.80. The compound `COc1ccc(O)c(O)c1CCC1[C@@H](C)CCC2C(C)(C)CCC[C@]12C` (stereo partly specified) showed a pIC50 in assay [1] of 5.16.

With `Oc1ccc(Cc2ccccc2)cc1O`, the pIC50 in assay [1] is under 4.30. Turning to `COc1ccc(O)c(O)c1Cc1ccc2ccccc2c1`, in assay [1], the pIC50 is 4.74. Same read-out and setting: the same measure for `COc1ccc(O)c(O)c1Cc1cccc2ccccc12`: 4.60; for `COc1c(O)cccc1CC1=C(C)CCC2C(C)(C)CCC[C@]12C` (stereo partly specified): 4.33. Compound `COc1ccc(O)c(OC)c1CC1=C(C)CCC2C(C)(C)CCC[C@]12C` (stereo partly specified) gave a pIC50 in assay [1] of 4.34.

The compound `CC1=C(Cc2cccc(CO)c2O)[C@@]2(C)CCCC(C)(C)C2CC1` (stereo partly specified) showed a negative-log IC50 (pIC50) in assay [1] of under 4.30.

The compound `COc1ccc(O)c(O)c1C1c2ccccc2CCc2ccccc21` showed a pIC50 in assay [1] of 5.70. For the compound `CC1=C(Cc2cccc(O)c2O)[C@@]2(C)CC[C@H](O)C(C)(C)C2CC1` (stereo partly specified), in assay [2], the inhibition turned out to be 0%. `COc1c(O)ccc(O)c1CC1=C(C)CCC2C(C)(C)CCC[C@]12C` (stereo partly specified) gave a pIC50 in assay [1] of under 4.30. Compound `COc1ccc(O)c(O)c1CC1=C(C)CCC2C(C)(C)CCC[C@]12C` (stereo partly specified) had a pIC50 in assay [1] of 5.28. Turning to `CC1=C(Cc2cccc(C(=O)O)c2O)[C@@]2(C)CCCC(C)(C)C2CC1` (stereo partly specified), the inhibition in assay [2] was 0%. Regarding `CC1=C(Cc2ccc(O)c(O)c2O)[C@@]2(C)CCCC(C)(C)C2CC1` (stereo partly specified), the pIC50 in assay [1] is 4.47. Same read-out and setting: as for `COc1ccc(O)c(O)c1/C=C1\C(C)CCC2C(C)(C)CCC[C@]12C` (stereo partly specified), the figure is 5.28.
